Molecules are shown by their SMILES.

A short description of this data set: Franz cell penetration study through pig skin stratum corneum/epidermis membrane. The class given is in vitro ADME. Conditions: for Cumulative penetration of spironolactone through stratum corneum/epidermis: formulation of Table 6a, receptor phosphate buffer pH 7.4. How it is done:
The functionality of the formulation was tested by evaporating the anti-solvent ethyl acetate. […] This formulation was used for penetration testing. When applied to the skin, spironolactone is intended to penetrate through the statum corneum into epidermis/dermis and not through the skin.
In this set-up, dermis was removed from full thickness pig skin and the remaining membrane consisting of stratum corneum and epidermis was mounted in the cell. The receptor fluid was phosphate buffer at pH 7.4 and 32° C. An amount of the experimental formulation corresponding to 50 mg of product and 1.5 mg of active substance after evaporation was applied. […] The experiment was performed at 34° C. and analysis of spironolactone was performed by HPLC.

Setting [1] is: after 6 hours, 1.5 mg of active substance applied.

Take `CC(=O)S[C@@H]1CC2=CC(=O)CC[C@]2(C)[C@H]2CC[C@@]3(C)[C@@H](CC[C@@]34CCC(=O)O4)[C@H]12` [Spironolactone]: the “amount of spironolactone passed the skin membrane” value under setting [1] amounted to 0.5 mg. Under setting [1], the “spironolactone passed the skin membrane, % of the dose” value was 33%. Further, the “Cumulative penetration of spironolactone through stratum corneum/epidermis” value reads like this: (time 0 h) 0 μg/cm^2; (time 2 h) 281 μg/cm^2; (time 4 h) 381 μg/cm^2; (time 6 h) 440 μg/cm^2; (time 24 h) 466 μg/cm^2.

(Values after US20130324502A1, “NOVEL FORMULATIONS FOR DERMAL, TRANSDERMAL AND MUCOSAL USE 1” (MOBERG PHARMA AB, priority 2011, published 2013).)
